This test has as its target T1, ATP-binding cassette transporter A1 (ABCA1) (Homo sapiens, UniProt O95477).
T1 construct: full-length ABCA1 (pIRES2-EGFP-ABCA1) in CHO cells; with apoA-I
Nature of the test: cell-based ELISA-like apoA-I binding to ABCA1-transfected CHO cells, with vector-only control; western blot. In general terms: ELISA stands for enzyme-linked immunosorbent assay.

T1 sequence (O95477 whole entry): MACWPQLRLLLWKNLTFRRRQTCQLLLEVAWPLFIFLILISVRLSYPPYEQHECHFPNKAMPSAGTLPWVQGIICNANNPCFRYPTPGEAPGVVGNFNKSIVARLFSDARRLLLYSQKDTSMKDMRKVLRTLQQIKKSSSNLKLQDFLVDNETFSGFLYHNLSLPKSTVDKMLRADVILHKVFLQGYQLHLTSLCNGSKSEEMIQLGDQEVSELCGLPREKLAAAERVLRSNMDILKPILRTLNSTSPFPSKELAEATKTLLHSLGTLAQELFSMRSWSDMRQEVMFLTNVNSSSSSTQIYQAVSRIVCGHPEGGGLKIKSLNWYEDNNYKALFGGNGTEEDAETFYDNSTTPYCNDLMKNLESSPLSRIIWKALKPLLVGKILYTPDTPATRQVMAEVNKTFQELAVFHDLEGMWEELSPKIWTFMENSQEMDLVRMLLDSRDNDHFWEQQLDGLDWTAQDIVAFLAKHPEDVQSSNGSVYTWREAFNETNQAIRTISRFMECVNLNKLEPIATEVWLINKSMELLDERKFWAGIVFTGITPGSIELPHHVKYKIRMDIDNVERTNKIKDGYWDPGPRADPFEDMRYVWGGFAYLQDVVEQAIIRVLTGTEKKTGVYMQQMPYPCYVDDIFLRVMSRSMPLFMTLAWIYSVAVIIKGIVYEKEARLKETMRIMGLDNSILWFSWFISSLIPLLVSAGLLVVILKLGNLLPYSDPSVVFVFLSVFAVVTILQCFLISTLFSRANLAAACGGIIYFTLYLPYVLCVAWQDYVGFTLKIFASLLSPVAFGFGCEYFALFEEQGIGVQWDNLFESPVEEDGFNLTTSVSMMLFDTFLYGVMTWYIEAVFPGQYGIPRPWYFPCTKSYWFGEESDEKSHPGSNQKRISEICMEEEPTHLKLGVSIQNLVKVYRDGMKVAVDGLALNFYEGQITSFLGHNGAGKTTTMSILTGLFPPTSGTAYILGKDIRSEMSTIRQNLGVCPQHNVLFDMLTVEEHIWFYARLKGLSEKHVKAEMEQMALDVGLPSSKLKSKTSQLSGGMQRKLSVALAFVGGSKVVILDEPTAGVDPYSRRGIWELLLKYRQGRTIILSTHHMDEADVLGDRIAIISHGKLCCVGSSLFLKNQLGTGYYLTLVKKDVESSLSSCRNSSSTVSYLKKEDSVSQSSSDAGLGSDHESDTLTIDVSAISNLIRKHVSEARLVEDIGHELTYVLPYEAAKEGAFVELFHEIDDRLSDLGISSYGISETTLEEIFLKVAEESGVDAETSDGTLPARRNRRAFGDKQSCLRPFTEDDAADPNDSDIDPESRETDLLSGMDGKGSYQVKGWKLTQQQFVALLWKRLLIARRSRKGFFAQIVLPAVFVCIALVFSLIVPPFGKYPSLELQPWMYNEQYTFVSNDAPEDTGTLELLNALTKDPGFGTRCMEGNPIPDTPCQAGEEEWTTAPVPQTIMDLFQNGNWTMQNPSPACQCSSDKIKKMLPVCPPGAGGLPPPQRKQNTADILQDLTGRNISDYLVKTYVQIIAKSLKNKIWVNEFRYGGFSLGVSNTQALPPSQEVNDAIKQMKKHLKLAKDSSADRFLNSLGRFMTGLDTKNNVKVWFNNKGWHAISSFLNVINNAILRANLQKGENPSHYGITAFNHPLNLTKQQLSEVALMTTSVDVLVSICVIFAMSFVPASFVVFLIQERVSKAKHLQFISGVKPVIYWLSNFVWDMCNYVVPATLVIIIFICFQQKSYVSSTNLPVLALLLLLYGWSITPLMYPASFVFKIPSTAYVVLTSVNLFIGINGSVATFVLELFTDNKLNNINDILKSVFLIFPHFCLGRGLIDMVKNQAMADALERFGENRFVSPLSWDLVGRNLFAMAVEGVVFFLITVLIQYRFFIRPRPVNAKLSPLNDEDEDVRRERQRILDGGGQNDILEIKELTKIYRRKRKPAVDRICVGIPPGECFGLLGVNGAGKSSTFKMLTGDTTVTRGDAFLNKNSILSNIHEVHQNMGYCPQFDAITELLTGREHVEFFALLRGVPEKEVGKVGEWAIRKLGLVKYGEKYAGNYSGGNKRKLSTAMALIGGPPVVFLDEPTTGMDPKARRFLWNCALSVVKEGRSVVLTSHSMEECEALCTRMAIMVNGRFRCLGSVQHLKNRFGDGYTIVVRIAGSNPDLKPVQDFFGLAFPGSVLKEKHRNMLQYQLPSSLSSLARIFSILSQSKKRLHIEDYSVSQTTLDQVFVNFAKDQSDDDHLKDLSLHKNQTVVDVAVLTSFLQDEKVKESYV
T1 sequence (P02647 25-267 partner): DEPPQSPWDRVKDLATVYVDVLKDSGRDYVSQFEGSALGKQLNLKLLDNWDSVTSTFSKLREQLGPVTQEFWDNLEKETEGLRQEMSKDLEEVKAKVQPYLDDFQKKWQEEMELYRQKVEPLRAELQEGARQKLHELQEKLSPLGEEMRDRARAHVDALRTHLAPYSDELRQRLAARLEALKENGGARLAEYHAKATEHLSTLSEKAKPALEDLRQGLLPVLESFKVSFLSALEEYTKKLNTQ

As to `COc1ccc(Cl)cc1C(=O)NCCc1ccc(S(=O)(=O)NC(=O)NC2CCCCC2)cc1` [glibenclamide], the “cell-based ELISA-like apoA-I binding to ABCA1-transfected CHO cells, with vector” value is on record as “an inhibition by glibenclamide was observed on transfected cells expressing ABCA1”.

These data come from publication PMC6268880, “IMB2026791, a Xanthone, Stimulates Cholesterol Efflux by Increasing the Binding of Apolipoprotein A-I to ATP-Binding Cassette Transporter A1” (Molecules, 2012).
